The results in this text go back to patent US6444617B1, “Fused-heterocycle dicarboxylic acid diamide derivatives or salts thereof, herbicide and usage thereof” (Nihon Nohyaku Co., Ltd., priority 1998, dated 2002).

Common to all, as to assay type: in vivo
In series [1] the test system is barnyard grass (Echinochloa crus-galli Beauv.). The series can be described thus: Test Example 1: herbicidal effect on paddy field weeds before emergence. The settings on record: Dosage 5 kg/ha. The gist of the method:
(§1)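 Grading reflects percent control relative to untreated plots, evaluated three weeks post-application. Treatment was a soil application of compound solution, predetermined dose, made to paddy-state pots before weed seeds germinated.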

The test system of series [2] is bulrush (Scirpus juncoides Roxb.). The description is as above. As to conditions: Dosage 5 kg/ha. In outline: as §1
Series [3] concerns barnyard grass (Echinochloa crus-galli Beauv.). The experiment in a line: Test Example 2: herbicidal effect on paddy field weeds after emergence. The settings on record: Dosage 5 kg/ha; one-leaved stage; 21 days after treatment. The gist of the method: (§2)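 Weeds in flooded paddy-soil pots were grown to the one-leaved stage, then the soil was treated with the compound solution at a set dosage.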

The test system of series [4] is bulrush (Scirpus juncoides Roxb.). Described as above. As to conditions: Dosage 5 kg/ha; one-leaved stage; 21 days after treatment. In outline:
as §2

Series [5] concerns monochoria (Monochoria vaginalis Presl). The description is as above. The settings on record: Dosage 5 kg/ha; one-leaved stage; 21 days after treatment. In outline: as §2
Series [6] relates to barnyard grass (Echinochloa crus-galli Beauv.), Ec. The series can be described thus: Test Example 3: herbicidal effect on upland weeds before emergence. As to conditions: dosage 5 kg/ha. In outline:
(§3)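 Steps: sow upland weed seeds; spray liquid formulation of active ingredient at prescribed concentration prior to emergence; after 14 days, calculate weed-killing rate; judge herbicidal effect.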

The subject of series [7] is bird's eye speedwell (Veronica persica Poir.), Vp. The description is as above. As to conditions: dosage 5 kg/ha. The gist of the method:
as §3

The test system of series [8] is cleavers (Galium aparine L.), Ga. The series is described as above. As to conditions: dosage 5 kg/ha. The gist of the method:
as §3

Series [9] relates to cocklebur (Xanthium strumarium L.), Xs. Described as above. As to conditions: dosage 5 kg/ha. In outline:
as §3

For series [10], the system named is forxtail grass (Alopecurus aequalis var. amurensis Ohwi), Am. Described as above. As to conditions: foxtail grass, dosage 5 kg/ha. The gist of the method: as §3
The subject of series [11] is velvetleaf (Abutilon theophtasti L.), At. Described as above. As to conditions: dosage 5 kg/ha. The gist of the method:
as §3

For a further series, the system named is soybean plant (So). The experiment in a line: Test Example 3: phytotoxicity to upland crop plants, treatment before emergence. As to conditions: dosage 5 kg/ha. In outline:
(§4)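 Pre-emergence spray of a liquid preparation at a prescribed compound concentration. Soybean and wheat injury was scored against a phytotoxicity criterion 14 days after treatment, alongside weed control.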

For the next series, the system named is wheat (Wh). The series is described as above. The settings on record: dosage 5 kg/ha. In outline: as §4
In series [12] the test system is barnyard grass (Echinochloa crus-galli Beauv.), Ec. The series can be described thus: Test Example 4: herbicidal effect on upland weeds after emergence. The settings on record: dosage 5 kg/ha; sprayed after emergence; judged 14 days after treatment. In outline:
(§5)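 Weeds and soybean grown in soil-filled vats to set leaf stages, then sprayed post-emergence with the compound at a prescribed concentration. Weed-killing rate and crop phytotoxicity judged 14 days after treatment.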

Series [13] concerns bird's eye speedwell (Veronica persica Poir.), Vp. The series is described as above. As to conditions: dosage 5 kg/ha; sprayed after emergence; judged 14 days after treatment. In outline: as §5
The test system of series [14] is cleavers (Galium aparine L.), Ga. Described as above. As to conditions: dosage 5 kg/ha; sprayed after emergence; judged 14 days after treatment. In outline: as §5
Series [15] concerns cocklebur (Xanthium strumarium L.), Xs. Described as above. The settings on record: dosage 5 kg/ha; sprayed after emergence; judged 14 days after treatment. The gist of the method: as §5
For series [16], the system named is forxtail grass (Alopecurus aequalis var. amurensis Ohwi), Am. Described as above. The settings on record: dosage 5 kg/ha; sprayed after emergence; judged 14 days after treatment. In outline: as §5
Series [17] relates to velvetleaf (Abutilon theophtasti L.), At. Described as above. As to conditions: dosage 5 kg/ha; sprayed after emergence; judged 14 days after treatment. In outline: as §5
A further series relates to soybean plant. The series can be described thus: Test Example 4: phytotoxicity to upland crop plants, treatment after emergence. As to conditions: dosage 5 kg/ha, sprayed after emergence, judged 14 days after treatment. In outline:
(§6)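 Scores of weed-killing rate, with crop phytotoxicity, come from inspection 14 days after plants in soil vats, grown to specified leaf stages, are sprayed with a formulation holding the compound at a prescribed concentration.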

In the next series the test system is wheat. The description is as above. As to conditions: dosage 5 kg/ha, sprayed after emergence, judged 14 days after treatment. The gist of the method:
as §6

As for `CCCNC(=O)c1nc2c(cc1C(=O)Nc1c(CC)ccc(Cl)c1CC)CCOC2` [compound 438], in series [1], the “Pre-emergence treatment Barnyard grass (herbicidal effect)” value (“Pre-emergence treatment Barnyard grass” below) was 5 (Weed-killing rate is 100%.). The “Pre-emergence treatment Bulrush (herbicidal effect)” value (“Pre-emergence treatment Bulrush” for short) in series [2] is reported as 5 (Weed-killing rate is 100%.). In series [3], the “Post-emergence treatment Barnyard grass (herbicidal effect)” value (shortened to “Post-emergence treatment Barnyard grass”) is on record as 5 (Weed-killing rate is 100%.). Besides, the “Post-emergence treatment Bulrush (herbicidal effect)” value (“Post-emergence treatment Bulrush” below) in series [4] is given as 5 (Weed-killing rate is 100%.). Further, in series [5], the “Post-emergence treatment Monochoria (herbicidal effect)” value (shortened to “Post-emergence treatment Monochoria”) was 5 (Weed-killing rate is 100%.). The “Herbicidal effect Ec” value in series [6] and in series [12] was 5 (Weed-killing rate is 100%.) in each case. In addition, the “Herbicidal effect Vp” value in series [7] and in series [13] was 5 (Weed-killing rate is 100%.) in each case. The “Herbicidal effect Ga” value in series [8] and in [14] was 5 (Weed-killing rate is 100%.) in each case. The “Herbicidal effect Xs” value in series [9] and in series [15] was 5 (Weed-killing rate is 100%.) throughout. Besides, the “Herbicidal effect Am” value in series [10] and in series [16] was 5 (Weed-killing rate is 100%.) each time. Also, the “Herbicidal effect At” value in series [11] and in [17] was 5 (Weed-killing rate is 100%.) in each case. Moreover, the “Phytotoxicity So” value was 5 (Crop-killing rate is 100%.) in the series on soybean plant (So) and 4 (Crop-killing rate is 90-99%.) with soybean plant. Further, the “Phytotoxicity Wh” value in the series on wheat (Wh) and in the series with wheat was 5 (Crop-killing rate is 100%.) each time.

With `CCc1ccc(Cl)c(CC)c1NC(=O)c1cc2c(nc1C(=O)NC1CCCC1)COCC2` [compound 447], the “Pre-emergence treatment Barnyard grass” value in series [1] was 5 (Weed-killing rate is 100%.). Also, the “Pre-emergence treatment Bulrush” value in series [2] is 5 (Weed-killing rate is 100%.). The “Post-emergence treatment Barnyard grass” value in [3] was 5 (Weed-killing rate is 100%.). In addition, the “Post-emergence treatment Bulrush” value in series [4] is 5 (Weed-killing rate is 100%.). Moreover, in [5], the “Post-emergence treatment Monochoria” value is reported as 5 (Weed-killing rate is 100%.). Besides, the “Herbicidal effect Ec” value in series [6] and in series [12] was 5 (Weed-killing rate is 100%.) in each case. Besides, the “Herbicidal effect Vp” value in [7] and in series [13] was 5 (Weed-killing rate is 100%.) throughout. Besides, the “Herbicidal effect Ga” value in series [8] and in [14] was 5 (Weed-killing rate is 100%.) throughout. The “Herbicidal effect Xs” value in [9] and in series [15] was 5 (Weed-killing rate is 100%.) in each case. In addition, the “Herbicidal effect Am” value in series [10] and in [16] was 5 (Weed-killing rate is 100%.) each time. Moreover, the “Herbicidal effect At” value in series [11] and in series [17] was 5 (Weed-killing rate is 100%.) throughout. Besides, the “Phytotoxicity So” value in the series with soybean plant (So) and with soybean plant was 4 (Crop-killing rate is 90-99%.) throughout. Further, the “Phytotoxicity Wh” value with wheat (Wh) and with wheat was 5 (Crop-killing rate is 100%.) throughout.

Regarding `CCCNC(=O)c1nc2c(cc1C(=O)Nc1cccc(Cl)c1C)CCOC2` [compound 450], in [1], the “Pre-emergence treatment Barnyard grass” value is 5 (Weed-killing rate is 100%.). The “Pre-emergence treatment Bulrush” value in [2] is reported as 5 (Weed-killing rate is 100%.). Also, in series [3], the “Post-emergence treatment Barnyard grass” value is 5 (Weed-killing rate is 100%.). Also, the “Post-emergence treatment Bulrush” value in series [4] is 5 (Weed-killing rate is 100%.). For the same compound, the “Post-emergence treatment Monochoria” value in series [5] is reported as 5 (Weed-killing rate is 100%.). For the same compound, the “Herbicidal effect Ec” value in series [6] and in series [12] was 5 (Weed-killing rate is 100%.) throughout. In addition, the “Herbicidal effect Vp” value in series [7] and in series [13] was 5 (Weed-killing rate is 100%.) in each case. The “Herbicidal effect Ga” value in series [8] and in series [14] was 4 (Weed-killing rate is 90-99%.) in each case. Further, the “Herbicidal effect Xs” value in series [9] and in series [15] was 4 (Weed-killing rate is 90-99%.) in each case. Also, the “Herbicidal effect Am” value in [10] and in [16] was 5 (Weed-killing rate is 100%.) in each case. Further, the “Herbicidal effect At” value in [11] and in series [17] was 5 (Weed-killing rate is 100%.) throughout. Also, the “Phytotoxicity So” value with soybean plant (So) and in the series with soybean plant was 4 (Crop-killing rate is 90-99%.) throughout. Besides, the “Phytotoxicity Wh” value with wheat (Wh) and in the series with wheat was 4 (Crop-killing rate is 90-99%.) each time.

On to `CCCNC(=O)c1nc2c(cc1C(=O)Nc1cccc(Cl)c1C)COCC2` [compound 474], for which, in series [1], the “Pre-emergence treatment Barnyard grass” value is reported as 5 (Weed-killing rate is 100%.). Moreover, the “Pre-emergence treatment Bulrush” value in series [2] is listed as 5 (Weed-killing rate is 100%.). In series [3], the “Post-emergence treatment Barnyard grass” value is 5 (Weed-killing rate is 100%.). For the same compound, the “Post-emergence treatment Bulrush” value in series [4] is on record as 5 (Weed-killing rate is 100%.). Moreover, the “Post-emergence treatment Monochoria” value in series [5] is given as 5 (Weed-killing rate is 100%.). Besides, the “Herbicidal effect Ec” value in series [6] and in series [12] was 5 (Weed-killing rate is 100%.) in each case. Besides, the “Herbicidal effect Vp” value in [7] and in [13] was 5 (Weed-killing rate is 100%.) each time. In addition, the “Herbicidal effect Ga” value in series [8] and in series [14] was 4 (Weed-killing rate is 90-99%.) each time. Also, the “Herbicidal effect Xs” value in series [9] and in series [15] was 4 (Weed-killing rate is 90-99%.) throughout. In addition, the “Herbicidal effect Am” value in series [10] and in series [16] was 5 (Weed-killing rate is 100%.) in each case. Besides, the “Herbicidal effect At” value in series [11] and in series [17] was 5 (Weed-killing rate is 100%.) in each case. For the same compound, the “Phytotoxicity So” value with soybean plant (So) and in the series with soybean plant was 3 (Crop-killing rate is 70-89%.) each time. Further, the “Phytotoxicity Wh” value in the series with wheat (Wh) was 4 (Crop-killing rate is 90-99%.); with wheat, 3 (Crop-killing rate is 70-89%.).
